Laboratory results taken from patent US12043632B2, “6-heteroaryloxy benzimidazoles and azabenzimidazoles as JAK2 inhibitors” (Ajax Therapeutics, Inc., priority 2020, dated 2024).

What follows are compounds tested against T1, JAK2 (JH1domain-catalytic, Y1007F,Y1008F) kinase (Homo sapiens, UniProt O60674, Y1007F/Y1008F) (assay: JAK2 JH1 Domain Binding Assay). Details: qPCR readout.
T1 construct: JAK2 (JH1domain-catalytic, Y1007F,Y1008F) kinase was expressed as N-terminal fusion; made in house; host or cells: transiently transfected HEK293 cells
T1 sequence (O60674 849-1124 Y1007F/Y1008F limits assumed): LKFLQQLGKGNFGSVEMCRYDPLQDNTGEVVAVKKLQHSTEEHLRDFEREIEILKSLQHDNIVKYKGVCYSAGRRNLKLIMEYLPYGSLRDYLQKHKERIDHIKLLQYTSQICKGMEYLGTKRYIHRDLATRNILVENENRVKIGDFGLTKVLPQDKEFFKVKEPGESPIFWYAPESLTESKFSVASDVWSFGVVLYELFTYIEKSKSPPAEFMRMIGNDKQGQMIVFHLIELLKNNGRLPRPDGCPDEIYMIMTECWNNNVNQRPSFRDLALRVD

Q: How did the Kd turn out when `CNc1nccn2ncc(Oc3cnc4nc(Nc5cc(CN6CC(OC)C6)cc(C(F)(F)F)c5)n(C)c4c3Cl)c12` [Example I-247, 7-chloro-N-(3-((3-methoxyazetidin-1-yl)methyl)-5-(trifluoromethyl)phenyl)-1-methyl-6-((4-(methylamino)pyrazolo[1,5-a]pyrazin-3-yl)oxy)-1H-imidazo[4,5-b]pyridin-2-amine] was run?
A: Its Kd is 0.01 to 0.05 µM.

Q: `Cn1cc(C(F)(F)F)cc(Nc2nc3ncc(Oc4cnn5ccnc(NCCN6CCOCC6)c45)c(Cl)c3n2C)c1=O` [Example I-248, 3-((7-chloro-1-methyl-6-((4-((2-morpholinoethyl)amino)pyrazolo[1,5-a]pyrazin-3-yl)oxy)-1H-imidazo[4,5-b]pyridin-2-yl)amino)-1-methyl-5-(trifluoromethyl)pyridin-2(1H)-one] was tested. Which Kd did it give?
A: Its Kd is < 0.01 µM.

Q: How did the Kd turn out when `CNc1nccn2ncc(Oc3cnc4nc(Nc5cc(CN6CC[C@H](OC)C6)cc(C(F)(F)F)c5)n(C)c4c3Cl)c12` [Example I-249, (S)-7-chloro-N-(3-((3-methoxypyrrolidin-1-yl)methyl)-5-(trifluoromethyl)phenyl)-1-methyl-6-((4-(methylamino)pyrazolo[1,5-a]pyrazin-3-yl)oxy)-1H-imidazo[4,5-b]pyridin-2-amine] was run?
A: The Kd was 0.01 to 0.05 µM.

Q: With `CNc1nccn2ncc(Oc3cnc4nc(Nc5cc(CN6CC[C@@H](OC)C6)cc(C(F)(F)F)c5)n(C)c4c3Cl)c12` [Example I-250, (R)-7-chloro-N-(3-((3-methoxypyrrolidin-1-yl)methyl)-5-(trifluoromethyl)phenyl)-1-methyl-6-((4-(methylamino)pyrazolo[1,5-a]pyrazin-3-yl)oxy)-1H-imidazo[4,5-b]pyridin-2-amine] as the compound, how does the Kd read?
A: Its Kd is 0.01 to 0.05 µM.

Q: With `CNc1nccn2ncc(Oc3cnc4nc(Nc5cc(C(C)(C)C)n([C@H]6CCN(C)C6)n5)n(C)c4c3Cl)c12` [Example I-251, (S)—N-(5-(tert-butyl)-1-(1-methylpyrrolidin-3-yl)-1H-pyrazol-3-yl)-7-chloro-1-methyl-6-((4-(methylamino)pyrazolo[1,5-a]pyrazin-3-yl)oxy)-1H-imidazo[4,5-b]pyridin-2-amine] as the compound, how does the Kd read?
A: Its Kd is < 0.01 µM.

Q: Which Kd does the source give for `CNc1nccn2ncc(Oc3cnc4nc(Nc5cc(C(C)(C)C)n([C@@H]6CCN(C)C6)n5)n(C)c4c3Cl)c12` [Example I-252, (R)—N-(5-(tert-butyl)-1-(1-methylpyrrolidin-3-yl)-1H-pyrazol-3-yl)-7-chloro-1-methyl-6-((4-(methylamino)pyrazolo[1,5-a]pyrazin-3-yl)oxy)-1H-imidazo[4,5-b]pyridin-2-amine] here?
A: The Kd was 0.01 to 0.05 µM.

Q: For `Cc1nc(Nc2nc3ncc(Oc4cnn5ccncc45)c(Cl)c3n2C)nc(C)c1C1CCCC1` [Example I-253, 7-chloro-N-(5-cyclopentyl-4,6-dimethylpyrimidin-2-yl)-1-methyl-6-(pyrazolo[1,5-a]pyrazin-3-yloxy)-1H-imidazo[4,5-b]pyridin-2-amine], which Kd is on record?
A: Its Kd is < 0.01 µM.

Q: With `CNc1nccn2ncc(Oc3cnc4nc(Nc5cc(C6CCN(C)CC6)cc(C(F)(F)F)c5)n(C)c4c3Cl)c12` [Example I-254, 7-chloro-1-methyl-6-((4-(methylamino)pyrazolo[1,5-a]pyrazin-3-yl)oxy)-N-(3-(1-methylpiperidin-4-yl)-5-(trifluoromethyl)phenyl)-1H-imidazo[4,5-b]pyridin-2-amine] as the compound, how does the Kd read?
A: The Kd was < 0.01 µM.

Q: `CNc1nccn2ncc(Oc3cnc4nc(Nc5cc(CN(C)C)cc(C(F)(F)F)c5)n(C)c4c3Cl)c12` [Example I-255, 7-chloro-N-(3-((dimethylamino)methyl)-5-(trifluoromethyl)phenyl)-1-methyl-6-((4-(methylamino)pyrazolo[1,5-a]pyrazin-3-yl)oxy)-1H-imidazo[4,5-b]pyridin-2-amine] was tested. Which Kd did it give?
A: The Kd was < 0.01 µM.

Q: Which Kd does the source give for `Cn1c(Nc2cc(CN3CCC3)cc(C(F)(F)F)c2)nc2ncc(Oc3cnn4ccncc34)c(Cl)c21` [Example I-256, N-(3-(azetidin-1-ylmethyl)-5-(trifluoromethyl)phenyl)-7-chloro-1-methyl-6-(pyrazolo[1,5-a]pyrazin-3-yloxy)-1H-imidazo[4,5-b]pyridin-2-amine] here?
A: Its Kd is < 0.01 µM.

Q: `Cn1c(Nc2cc(CN3CC(O)C3)cc(C(F)(F)F)c2)nc2ncc(Oc3cnn4ccncc34)c(Cl)c21` [Example I-258, 1-(3-((7-chloro-1-methyl-6-(pyrazolo[1,5-a]pyrazin-3-yloxy)-1H-imidazo[4,5-b]pyridin-2-yl)amino)-5-(trifluoromethyl)benzyl)azetidin-3-ol] was tested. Which Kd did it give?
A: The Kd was < 0.01 µM.

Q: For `CNc1nccn2ncc(Oc3cnc4nc(Nc5cc(OC6CN(C)C6)cc(C(F)(F)F)c5)n(C)c4c3Cl)c12` [Example I-259, 7-chloro-1-methyl-6-((4-(methylamino)pyrazolo[1,5-a]pyrazin-3-yl)oxy)-N-(3-((1-methylazetidin-3-yl)oxy)-5-(trifluoromethyl)phenyl)-1H-imidazo[4,5-b]pyridin-2-amine], which Kd is on record?
A: The Kd was 0.01 to 0.05 µM.

Q: How did the Kd turn out when `Cn1cc(C(F)(F)F)cc(Nc2nc3ncc(Oc4cnc5[nH]ncc5c4)c(C#N)c3n2C)c1=O` [Example I-260, 6-((1H-pyrazolo[3,4-b]pyridin-5-yl)oxy)-1-methyl-2-((1-methyl-2-oxo-5-(trifluoromethyl)-1,2-dihydropyridin-3-yl)amino)-1H-imidazo[4,5-b]pyridine-7-carbonitrile] was run?
A: The Kd was < 0.01 µM.

Q: How did the Kd turn out when `Cn1cc(C(F)(F)F)cc(Nc2nc3ncc(Oc4cnc5[nH]ncc5c4)c(Cl)c3n2C)c1=O` [Example I-261, 3-((6-((1H-pyrazolo[3,4-b]pyridin-5-yl)oxy)-7-chloro-1-methyl-1H-imidazo[4,5-b]pyridin-2-yl)amino)-1-methyl-5-(trifluoromethyl)pyridin-2(1H)-one] was run?
A: The Kd was < 0.01 µM.

Q: Which Kd does the source give for `CNc1nccn2ncc(Oc3cnc4nc(Nc5cc(CN6CCC6)cc(C(F)(F)F)c5)n(C)c4c3Cl)c12` [Example I-263, N-(3-(azetidin-1-ylmethyl)-5-(trifluoromethyl)phenyl)-7-chloro-1-methyl-6-((4-(methylamino)pyrazolo[1,5-a]pyrazin-3-yl)oxy)-1H-imidazo[4,5-b]pyridin-2-amine] here?
A: The Kd was < 0.01 µM.

Q: `CNc1nccn2ncc(Oc3cnc4nc(Nc5cc(CN6CC(O)C6)cc(C(F)(F)F)c5)n(C)c4c3Cl)c12` [Example I-264, 1-(3-((7-chloro-1-methyl-6-((4-(methylamino)pyrazolo[1,5-a]pyrazin-3-yl)oxy)-1H-imidazo[4,5-b]pyridin-2-yl)amino)-5-(trifluoromethyl)benzyl)azetidin-3-ol] was tested. Which Kd did it give?
A: The Kd was 0.01 to 0.05 µM.

Q: `Cn1cc(C(F)(F)F)cc(Nc2nc3ncc(Oc4cnc5[nH]ccc5c4)c(C#N)c3n2C)c1=O` [Example I-265, 6-((1H-pyrrolo[2,3-b]pyridin-5-yl)oxy)-1-methyl-2-((1-methyl-2-oxo-5-(trifluoromethyl)-1,2-dihydropyridin-3-yl)amino)-1H-imidazo[4,5-b]pyridine-7-carbonitrile] was tested. Which Kd did it give?
A: Its Kd is < 0.01 µM.

Q: How did the Kd turn out when `Cn1c(F)c(C2CC2)cc(Nc2nc3ncc(Oc4cnn5ccncc45)c(Cl)c3n2C)c1=O` [Example I-266, 3-((7-chloro-1-methyl-6-(pyrazolo[1,5-a]pyrazin-3-yloxy)-1H-imidazo[4,5-b]pyridin-2-yl)amino)-5-cyclopropyl-6-fluoro-1-methylpyridin-2(1H)-one] was run?
A: Its Kd is < 0.01 µM.

Q: How did the Kd turn out when `Cc1nc(Nc2nc3ncc(Oc4cnn5ccncc45)c(Cl)c3n2C)nc(C)c1N1CCC1` [Example I-268, N-(5-(azetidin-1-yl)-4,6-dimethylpyrimidin-2-yl)-7-chloro-1-methyl-6-(pyrazolo[1,5-a]pyrazin-3-yloxy)-1H-imidazo[4,5-b]pyridin-2-amine] was run?
A: Its Kd is 0.05 to 1 µM.
